# Where two headings read alike, the source gives them in different places.
# Tests used:
# [1] = assay type: physicochemical; settings: 50° C., nitrogen atmosphere; for content ratio, 2 hours elapsed / content ratio, 4 hours elapsed / content ratio, 6 hours elapsed / content ratio, 10 hours elapsed: GC with internal standard; for content ratio, 0 hour: content immediately after temperature rise defined as 100%
# Protocol: 50 mL of each of SAL and acrolein was charged in three-necked flask, and the contents were subjected to temperature rise to 50° C. in a nitrogen atmosphere. On the occasion when the content of each of SAL and acrolein immediately after the temperature rise was defined as 100%, a change of the content ratio was observed according to the calibration curve method by means of gas chromatography with an internal standard.
# Analysis instrument: GC-14A (available from Shimadzu Corporation) Detector: FID (hydrogen flame ionization detector)
# Column used: DB-1701 (length: 50 m, film thickness: 1 pn, inner diameter: 0.32 mm) (available from Agilent Technologies)
# Analysis conditions: Injection temperature: 250° C., detection temperature: 250° C.
# Temperature rise conditions: 70° C.→(temperature rise at 5° C./min)→250° C.
# Internal standard substance: Diglyme (diethylene glycol dimethyl ether)
# [2] = test system: Rat; settings: cited from earlier work
# [3] = Removal test of iron sulfide; settings: for time elapsed until iron sulfide was dissolved and the reaction solution became colorless transparent: 1.5 mmol aldehyde, 0.5 mmol iron sulfide in 500 mL water, 50° C., 500 rpm
# [4] = assay type: physicochemical; settings: pH 1.7
# Protocol: Each of SAL and acrolein was dissolved in 0.5 mol/L of phosphoric acid buffer solutions having a pH different from each other, thereby preparing 0.1 wt % solutions. 50 mL of each of the solutions was charged in a sample vial in a nitrogen atmosphere and stored at 23±2° C. On the occasion when the content of each of SAL and acrolein at the time of preparation was defined as 100%, a change of the content ratio was observed according to the absolute calibration curve by means of high-performance liquid chromatography analysis.
# pH 1.7: 4.9 g of 75% phosphoric acid and 7.8 g of sodium dihydrogen phosphate dihydrate were dissolved in 200 mL of distilled water.
# pH 6.2: 7.8 g of sodium dihydrogen phosphate dihydrate and 7.1 g of disodium hydrogen phosphate were dissolved in 200 mL of distilled water.
# pH 8.1: 0.3 g of sodium dihydrogen phosphate dihydrate and 13.9 g of disodium hydrogen phosphate were dissolved in 200 mL of distilled water.
# Analysis instrument: Prominence System (available from Shimadzu Corporation)
# Column used: Cadenza CD-C18 (length: […], inner diameter: 4.6 mm)
# Developing solution: H2O/MeOH=45/55 (volume ratio), H3PO4=1 mol/L
# [5] = upper respiratory tract; cited from earlier work
SMILES,"content ratio, 2 hours elapsed [1]","content ratio, 4 hours elapsed [1]","content ratio, 6 hours elapsed [1]","content ratio, 10 hours elapsed [1]","content ratio, 0 hour [1]",ratio lost after elapsing 10 hours ([1]; acrolein contained hydroquinone as a stabilizer),"Acute toxicity, Rat LD50 ([2]; Rat)",time elapsed until iron sulfide was dissolved and the reaction solution became colorless transparent [3],pH stability as compared with acrolein [4],"Acute toxicity, Rat LD50 ([2]; rat, in vivo)",GHS Classification (under Permissible Exposure Limit) [5],iron sulfide removal ability ([3]; compared with acrolein)
"C=CC=O [Acrolein, acrolein, reference compound]",99.5%,98.3%,98.1%,96.6%,100.0%,3.4%,Rat LD50: 42 mg/kg,4 h,,,,
"CC(C)=CCCC(C)=CC=O [Citral, 3,7-dimethyl-2,6-octadienal]",,,,,,,,7 h,,,,
"CC(C)=CC=O [SAL, 3-methyl-2-butenal]",100.0%,100.0%,100.0%,99.9%,100.0%,,,4 h,extremely high in the pH stability as compared with acrolein,Rat LD50: 690 mg/kg,GHS Classification; Section 1 (upper,equivalent to acrolein

# From patent US20190241822A1, “COMPOSITION FOR REMOVING IRON SULFIDE” (KURARAY CO., LTD., priority 2016, published 2019)
